Data on 4 compounds can be found in ChEMBL document CHEMBL1134501, “Structure-activity studies for a novel series of bicyclic substituted hexahydrobenz[e]isoindole alpha1A adrenoceptor antagonists as potential agents for the symptomatic treatment of benign prostatic hyperplasia” (J Med Chem, 2001).

For test [1], the system named is Canis familiaris. The experiment in a line: In vivo antagonist dissociation constant in intaraurethral pressure model in dogs. The note with it: Canis lupus familiaris, read-out: pA2 (converted).
The target of test [2] is T1, Alpha-1B adrenergic receptor (Rattus norvegicus, UniProt P15823).
T1 sequence (P15823 whole entry): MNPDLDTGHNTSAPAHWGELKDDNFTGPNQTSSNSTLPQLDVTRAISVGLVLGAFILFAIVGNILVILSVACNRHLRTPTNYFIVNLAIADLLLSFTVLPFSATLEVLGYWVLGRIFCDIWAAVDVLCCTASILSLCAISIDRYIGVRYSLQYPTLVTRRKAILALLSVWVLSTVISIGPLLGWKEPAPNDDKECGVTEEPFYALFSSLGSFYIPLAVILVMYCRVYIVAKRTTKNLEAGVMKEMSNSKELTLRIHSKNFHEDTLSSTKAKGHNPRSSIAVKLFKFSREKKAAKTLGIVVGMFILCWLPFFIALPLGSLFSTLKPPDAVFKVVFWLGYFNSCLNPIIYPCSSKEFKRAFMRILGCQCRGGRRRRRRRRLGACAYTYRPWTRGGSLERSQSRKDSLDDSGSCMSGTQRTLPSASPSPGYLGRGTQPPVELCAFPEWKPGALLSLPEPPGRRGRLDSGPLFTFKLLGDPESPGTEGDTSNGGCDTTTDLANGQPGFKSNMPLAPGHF
The experiment in a line: In vitro antagonistic activity against alpha-1B receptor in rat spleen. In kind it is functional, tissue-based. Conditions: read-out: pA2 (converted).

In test [3] the target is T2, Alpha-1A adrenergic receptor (Rattus norvegicus, UniProt P43140).
T2 sequence (P43140 whole entry): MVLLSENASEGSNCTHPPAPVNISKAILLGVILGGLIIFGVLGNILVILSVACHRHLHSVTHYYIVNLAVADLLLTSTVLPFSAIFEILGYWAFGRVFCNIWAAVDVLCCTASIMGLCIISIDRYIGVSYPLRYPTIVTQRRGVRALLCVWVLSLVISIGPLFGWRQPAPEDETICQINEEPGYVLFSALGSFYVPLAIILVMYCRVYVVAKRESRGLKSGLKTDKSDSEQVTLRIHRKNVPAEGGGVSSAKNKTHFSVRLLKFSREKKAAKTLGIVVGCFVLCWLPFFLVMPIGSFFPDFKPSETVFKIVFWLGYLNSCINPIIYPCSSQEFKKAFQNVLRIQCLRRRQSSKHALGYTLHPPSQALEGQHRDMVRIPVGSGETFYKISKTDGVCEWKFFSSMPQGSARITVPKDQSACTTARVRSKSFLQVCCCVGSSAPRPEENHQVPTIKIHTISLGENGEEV
The experiment in a line: Binding affinity to alpha-1A adrenergic receptor in rat submaxillary gland. In kind it is tissue-based.

A short description of test [4]: Selectivity ratio (antolog[pA2rat vas deferens/pA2 rat spleen]) of the compound. In kind it is functional.
Test [5] is filed under the species Cricetulus griseus. The experiment in a line: Selectivity ratio (alpha-1B/alpha-1A) of the compound.
Test [6] has as its target T3, Alpha-1D adrenergic receptor (Rattus norvegicus, UniProt P23944).
T3 sequence (P23944 whole entry): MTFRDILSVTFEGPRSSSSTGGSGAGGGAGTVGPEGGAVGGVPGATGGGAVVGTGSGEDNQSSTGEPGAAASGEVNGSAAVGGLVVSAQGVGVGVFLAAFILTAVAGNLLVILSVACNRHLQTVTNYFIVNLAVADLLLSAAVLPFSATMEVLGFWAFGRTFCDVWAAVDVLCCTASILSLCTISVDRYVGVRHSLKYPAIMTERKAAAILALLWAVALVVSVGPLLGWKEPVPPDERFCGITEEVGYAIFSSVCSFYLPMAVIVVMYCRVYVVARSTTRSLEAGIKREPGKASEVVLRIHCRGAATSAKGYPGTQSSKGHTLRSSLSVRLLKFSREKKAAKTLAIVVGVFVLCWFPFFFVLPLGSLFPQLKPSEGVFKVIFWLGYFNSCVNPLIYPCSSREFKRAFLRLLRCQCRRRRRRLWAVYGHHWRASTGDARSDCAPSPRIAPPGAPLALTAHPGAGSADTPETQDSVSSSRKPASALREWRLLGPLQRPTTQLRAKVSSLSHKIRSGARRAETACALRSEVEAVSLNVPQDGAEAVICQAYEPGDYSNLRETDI
The experiment in a line: Binding affinity to rat alpha-1D adrenergic receptor expressed in LTK cells. In kind it is cell-based.

Test [7] is filed under the species Rattus norvegicus. The experiment in a line: Antagonistic activity in spontaneously hypertensive rat model. In kind it is functional.
For test [8], the target named is T2, Alpha-1A adrenergic receptor. The experiment in a line: In vitro antagonistic activity towards alpha-1A adrenergic receptor in rat vas deferens. In kind it is functional, tissue-based. Conditions: read-out: pA2 (converted).
The target of test [9] is Alpha-1A adrenergic receptor (Canis familiaris). The experiment in a line: In vitro antagonistic activity against alpha-1A receptor in dog prostate. Conditions: read-out: pA2 (converted).

`COc1cc2nc(N(C)CCCNC(=O)C3CCCO3)nc(N)c2cc1OC` (configuration not stated) [ALFUZOSIN]: the Kb is 135 nM in test [1] and 4.9 nM in [2].
As to `COc1cccc2c1CC[C@H]1CN(CCn3c(=O)[nH]c4c(OC)c(OC)ccc4c3=O)C[C@@H]21`, the inhibition constant (Ki) (in general, a dissociation constant, usually derived from enzyme kinetics or from competition with a known ligand) came to 0.04 nM in [3] and 0.68 nM in test [6]. Besides, the figures for the Ratio in test [4] and in test [5] were 5.62 and 16.5, respectively.
In the case of `COc1cc2ncn(CCN3C[C@@H]4CCc5c(OC)cccc5[C@@H]4C3)c(=O)c2cc1OC`, the Kb was 5.01 nM in test [1] and 85.1 nM in test [2]. The same compound showed a pED50 in test [7] of 5.32. This compound also yielded an inhibition constant (Ki) in test [6] of 7.79 nM.
`COc1cccc2c1CC[C@H]1CN(CCn3c(=O)[nH]c4cc(C#N)ccc4c3=O)C[C@@H]21`: the Kb in [8] is 1.48 nM; in [2], 18.6 nM; in test [9], 0.148 nM. For the same compound, the figures for the Ki in test [3] and in [6] were 0.09 nM and 0.77 nM, respectively. Also, the results for the Ratio in test [4] and in test [5] were 12.59 and 17.3, respectively.
